Here are results for 17 compounds from patent US20100048564A1, “FUSED BICYCLIC HETEROARYL DERIVATIVE” (DAIICHI SANKYO COMPANY, LIMITED, priority 2007, published 2010).

For one series, the system named is KK mice. The experiment in a line: Hypoglycemic effect in diabetic KK mice (Test Example 1). It is filed as in vivo. Particulars: Mus musculus, po, 72 h; male KK mice, diet admixture containing 0.03% of the compound, 3 days, plasma glucose vs control group; read-out: Hypoglycemic rate (%). The source says: Six-week-old male KK mice were purchased from CLEA Japan, Inc. and then were fed until 15 to 20 weeks old to develop diabetes. The mice were individually fed during the adaptation period and the test period, and water and feed (FR2, Funabashi Farm) were freely ingested.
At the start of the experiment, after body weight measurement, blood was collected from the tail vein of the mice into a heparin-coated glass tube and centrifuged, and then plasma was separated. The glucose level in the plasma was measured by Glucoloader GXT (A&T Corp.), and individuals having a plasma glucose level of about 350 mg/dl or more were selected. The mice were grouped, each group having 3 to 4 mice, to make the average body weight and the average plasma glucose level similar. Each compound was administered to a compound group with a diet admixture containing 0.03% of the compound. A separate group in which the mice were fed only with diet was a control group.
The experiment period (drug administration period) was three days. The grouping day was the 0th day. On the 3rd day, the body weight was measured and blood was collected from the tail vein to measure the plasma glucose level.
The hypoglycemic rate was determined by the following formula.
Hypoglycemic rate=[(Control group blood glucose level−Compound-administered group blood glucose level)/Control group blood glucose level]×100

Molecules are shown by their SMILES.

For `COC(=O)c1cccc(OCc2nc3ccc(Oc4cccnc4)cc3n2C)c1.Cl.Cl`, the melting point (as a rule, the temperature, or range, at which the solid turns liquid) was in the range of 195 to 208 °C.
`Cn1c(COc2cccc(C(=O)O)c2)nc2ccc(Oc3ccccc3F)cc21` [Example 28, 3-{[6-(2-Fluorophenoxy)-1-methyl-1H-benzimidazol-2-yl]methoxy}benzoic acid]: the inhibition in vivo at 0.03 % in diet in the series on KK mice was found to be 61%.
Same read-out and setting: the same measure for `COc1cccc(Oc2ccc3nc(COc4cccc(C(=O)O)c4)n(C)c3c2)c1` [Example 29, 3-{[6-(3-Methoxyphenoxy)-1-methyl-1H-benzimidazol-2-yl]methoxy}benzoic acid]: 60%.
Compound `Cl.Cn1c(COc2cccc(C(=O)O)c2)nc2ccc(Oc3cccc(Cl)c3)cc21` [Example 31, 3-[6-(3-Chlorophenoxy)-1-methyl-1H-benzimidazol-2-ylmethoxy]benzoic acid hydrochloride] yielded a melting point of 218 to 222 °C. Besides, the inhibition in vivo at 0.03 % in diet with KK mice came to 47%.
For the compound `Cn1c(COc2cccc(C(=O)O)c2)nc2ccc(Oc3cccc(OC(F)(F)F)c3)cc21` [Example 33, 3-({1-Methyl-6-[3-(trifluoromethoxy)phenoxy]-1H-benzimidazol-2-yl}methoxy]benzoic acid], the melting point was 221 to 227 °C. Further, the inhibition in vivo at 0.03 % in diet in the series on KK mice worked out at 42%.
`Cn1c(COc2cccc(C(=O)O)c2)nc2ccc(Oc3cc(F)cc(Cl)c3)cc21` [Example 38, 3-{[6-(3-Chloro-5-fluorophenoxy)-1-methyl-1H-benzimidazol-2-yl]methoxy}benzoic acid] registered a melting point of 209 to 213 °C.
The same measure, in the same setting: with `Cc1cc(F)cc(Oc2ccc3nc(COc4cccc(C(=O)O)c4)n(C)c3c2)c1` [Example 40, 3-{[6-(3-Fluoro-5-methylphenoxy)-1-methyl-1H-benzimidazol-2-yl]methoxy}benzoic acid] the figure was 224 to 226 °C.
As to `Cn1c(COc2cccc(C(=O)O)c2)nc2ccc(Oc3cc(F)ccc3F)cc21` [Example 41, 3-{[6-(2,5-Difluorophenoxy)-1-methyl-1H-benzimidazol-2-yl]methoxy}benzoic acid], the inhibition in vivo at 0.03 % in diet in the series with KK mice is 51%.
`CCc1cccc(Oc2ccc3nc(COc4cccc(C(=O)O)c4)n(C)c3c2)c1` [Example 42, 3-{[6-(3-Ethylphenoxy)-1-methyl-1H-benzimidazol-2-yl]methoxy}benzoic acid] registered a melting point of 204 to 208 °C. Besides, the inhibition in vivo at 0.03 % in diet with KK mice was 29%.
With `Cc1ccc(Oc2ccc3nc(COc4cccc(C(=O)O)c4)n(C)c3c2)cc1` [Example 49, 3-{[1-Methyl-6-(4-methylphenoxy)-1H-benzimidazol-2-yl]methoxy}benzoic acid], the inhibition in vivo at 0.03 % in diet in the series with KK mice turned out to be 48%.
Still for that read-out and setting: the same measure for `COc1cc(Oc2ccc3nc(COc4cccc(C(=O)O)c4)n(C)c3c2)ccc1C` [Example 54, 3-{[6-(3-Methoxy-4-methylphenoxy)-1-methyl-1H-benzimidazol-2-yl]methoxy}benzoic acid]: 32%; for `Cc1ccc(Oc2ccc3nc(COc4cccc(C(=O)O)c4)n(C)c3c2)cc1C` [Example 55, 3-{[6-(3,4-Dimethylphenoxy)-1-methyl-1H-benzimidazol-2-yl]methoxy}benzoic acid]: 44%; for `Cn1c(COc2cc(F)cc(C(=O)O)c2)nc2ccc(Oc3ccc(Cl)c(F)c3)cc21` [Example 59, 3-{[6-(4-Chloro-3-fluorophenoxy)-1-methyl-1H-benzimidazol-2-yl]methoxy}-5-fluorobenzoic acid]: 47%.
On the same count and under the same terms, with `CCC(CC)Oc1ccc2nc(COc3cccc(C(=O)O)c3)n(C)c2c1` [Example 67, 3-{[6-(1-Ethylpropoxy)-1-methyl-1H-benzimidazol-2-yl]methoxy}benzoic acid] the figure was 50%; with `Cc1ccc(Oc2ccc3nc(COc4cccc(C(=O)O)c4)n(C)c3n2)cc1` [Example 69, 3-{[3-Methyl-5-(4-methylphenoxy)-3H-imidazo[4,5-b]pyridin-2-yl]methoxy}benzoic acid], 43%.
The same measure, in the same setting: the same measure for `Cc1ccc(Oc2ccc3nc(COc4cccc(C(=O)O)c4)n(C)c3n2)cc1C` [Example 70, 3-{[5-(3,4-Dimethylphenoxy)-3-methyl-3H-imidazo[4,5-b]pyridin-2-yl]methoxy}benzoic acid]: 38%; for `Cc1ccc(Oc2ccc3nc(COc4cc(F)cc(C(=O)O)c4)n(C)c3n2)cc1` [Example 72, 3-Fluoro-5-{[3-methyl-5-(4-methylphenoxy)-3H-imidazo[4,5-b]pyridin-2-yl]methoxy}benzoic acid]: 42%.
